Test system: MDA-MB-231
Experiment: Cytotoxicity against human MDA-MB-231 cells assessed as growth inhibition after 72 hrs by SRB assay
Type: functional, cell-based
Conditions: Homo sapiens, MDA-MB-231, 72 h

First: C/C1=C\C(=O)OC[C@@]23CC[C@](C)(O)[C@H]4C[C@@]5(O)[C@@H](C[C@@H](OC(=O)/C=C\C=C\[C@H]([C@@H](C)O)OCC1)[C@]25C)O[C@H]43
Second: COc1cccc2c1C(=O)c1c(O)c3c(c(O)c1C2=O)C[C@@](O)(C(=O)CO)C[C@@H]3O[C@H]1C[C@H](N)[C@H](O)[C@H](C)O1 [DOXORUBICIN]
The IC50 of the first is higher: greater than 10000 nM for the first, 80 nM for the second.

`COc1cc([C@@H]2c3cc4c(cc3[C@@H](O[C@@H]3O[C@@H]5CO[C@@H](C)O[C@H]5[C@H](O)[C@H]3O)[C@H]3COC(=O)[C@H]23)OCO4)cc(OC)c1O` [ETOPOSIDE] showed an IC50 of 2300 nM.

Same assay, conditions: mda-mb-231

Going from `CC1=C[C@H]2O[C@@H]3C[C@@H](OC(=O)/C=C\C=C\[C@@H](OCCC4=CC(=O)OC4)[C@@H](C)O)[C@](C)([C@@]2(CO)CC1)[C@@]31CO1` to `CC1=C[C@H]2O[C@@H]3C[C@@H](OC(=O)/C=C\C=C\[C@@H](OCCC4=CC(=O)OC4)[C@@H](C)O)[C@](C)([C@@]2(COC(=O)/C=C(\C)CCO)CC1)[C@@]31CO1`, the IC50 falls from greater than 10000 nM to 20 nM.

First: CC1=C[C@H]2O[C@@H]3C[C@@H](OC(=O)/C=C\C=C\[C@]4([C@H](C)O)OCC/C(=C\C(=O)O)[C@@H]4O)[C@](C)([C@@]2(CO)CC1)[C@@]31CO1
Second: COC(=O)/C=C/C=C/[C@@H](OCC/C(C)=C/C(=O)OC[C@]12CCC(C)=C[C@H]1O[C@@H]1C[C@@H](O)[C@@]2(C)[C@@]12CO2)[C@@H](C)O
The IC50 of the first is lower: 3600 nM for the first, greater than 10000 nM for the second. The first is the more potent here.

Going from `CC1=C[C@H]2O[C@@H]3C[C@H]4OC(=O)/C=C\C=C\[C@]5([C@H](C)O)OCC/C(=C\C(=O)OC[C@@]2(CC1)[C@]4(C)[C@@]31CO1)[C@H]5O` to `CC1=C[C@H]2O[C@@H]3C[C@H]4OC(=O)/C=C\C=C\[C@]5([C@H](C)O)OCC/C(=C\C(=O)OC[C@@]2(CC1)[C@]4(C)[C@@]31CO1)[C@@H]5O`, the IC50 falls from 2000 nM to 0.4 nM (5000-fold). The second is the more potent here.

Work on `CC1=C[C@H]2O[C@@H]3C[C@H]4OC(=O)/C=C\C=C\[C@H]([C@@H](C)O)OCC/C(C)=C/C(=O)OC[C@@]2(CC1)[C@]4(C)[C@]31CO1` [RORIDIN E] yielded an IC50 of 0.03 nM.

Test system: MDA-MB-468
Experiment: Cytotoxicity against human MDA-MB-468 cells assessed as growth inhibition after 72 hrs by SRB assay
Type: functional, cell-based
Conditions: Homo sapiens, MDA-MB-468, 72 h

Compared with `C/C1=C\C(=O)OC[C@@]23CC[C@](C)(O)[C@H]4C[C@@]5(O)[C@@H](C[C@@H](OC(=O)/C=C\C=C\[C@H]([C@@H](C)O)OCC1)[C@]25C)O[C@H]43`, `COc1cccc2c1C(=O)c1c(O)c3c(c(O)c1C2=O)C[C@@](O)(C(=O)CO)C[C@@H]3O[C@H]1C[C@H](N)[C@H](O)[C@H](C)O1` [DOXORUBICIN] is lower in IC50: greater than 10000 nM for the first, 70 nM for the second.

For `COc1cc([C@@H]2c3cc4c(cc3[C@@H](O[C@@H]3O[C@@H]5CO[C@@H](C)O[C@H]5[C@H](O)[C@H]3O)[C@H]3COC(=O)[C@H]23)OCO4)cc(OC)c1O` [ETOPOSIDE], the IC50 was 2100 nM.

Same assay, conditions: mda-mb-468

First: CC1=C[C@H]2O[C@@H]3C[C@@H](OC(=O)/C=C\C=C\[C@@H](OCCC4=CC(=O)OC4)[C@@H](C)O)[C@](C)([C@@]2(CO)CC1)[C@@]31CO1
Second: CC1=C[C@H]2O[C@@H]3C[C@@H](OC(=O)/C=C\C=C\[C@@H](OCCC4=CC(=O)OC4)[C@@H](C)O)[C@](C)([C@@]2(COC(=O)/C=C(\C)CCO)CC1)[C@@]31CO1
The IC50 of the first is higher: greater than 10000 nM for the first, 80 nM for the second.

`CC1=C[C@H]2O[C@@H]3C[C@@H](OC(=O)/C=C\C=C\[C@]4([C@H](C)O)OCC/C(=C\C(=O)O)[C@@H]4O)[C@](C)([C@@]2(CO)CC1)[C@@]31CO1` and `COC(=O)/C=C/C=C/[C@@H](OCC/C(C)=C/C(=O)OC[C@]12CCC(C)=C[C@H]1O[C@@H]1C[C@@H](O)[C@@]2(C)[C@@]12CO2)[C@@H](C)O` cannot be ordered by IC50: greater than 10000 nM for the first, greater than 10000 nM for the second.

First: CC1=C[C@H]2O[C@@H]3C[C@H]4OC(=O)/C=C\C=C\[C@]5([C@H](C)O)OCC/C(=C\C(=O)OC[C@@]2(CC1)[C@]4(C)[C@@]31CO1)[C@H]5O
Second: CC1=C[C@H]2O[C@@H]3C[C@H]4OC(=O)/C=C\C=C\[C@]5([C@H](C)O)OCC/C(=C\C(=O)OC[C@@]2(CC1)[C@]4(C)[C@@]31CO1)[C@@H]5O
The IC50 of the first is 1100-fold higher: 3400 nM for the first, 3 nM for the second. The second is the more potent here.

For `CC1=C[C@H]2O[C@@H]3C[C@H]4OC(=O)/C=C\C=C\[C@H]([C@@H](C)O)OCC/C(C)=C/C(=O)OC[C@@]2(CC1)[C@]4(C)[C@]31CO1` [RORIDIN E], the IC50 was 0.05 nM.

Test system: HCC70
Experiment: Cytotoxicity against human HCC70 cells assessed as growth inhibition after 72 hrs by SRB assay
Type: functional, cell-based
Conditions: Homo sapiens, HCC70, 72 h

Going from `C/C1=C\C(=O)OC[C@@]23CC[C@](C)(O)[C@H]4C[C@@]5(O)[C@@H](C[C@@H](OC(=O)/C=C\C=C\[C@H]([C@@H](C)O)OCC1)[C@]25C)O[C@H]43` to `COc1cccc2c1C(=O)c1c(O)c3c(c(O)c1C2=O)C[C@@](O)(C(=O)CO)C[C@@H]3O[C@H]1C[C@H](N)[C@H](O)[C@H](C)O1` [DOXORUBICIN], the IC50 falls from greater than 10000 nM to 50 nM.

With `COc1cc([C@@H]2c3cc4c(cc3[C@@H](O[C@@H]3O[C@@H]5CO[C@@H](C)O[C@H]5[C@H](O)[C@H]3O)[C@H]3COC(=O)[C@H]23)OCO4)cc(OC)c1O` [ETOPOSIDE] the IC50 was 1800 nM.

Same assay, conditions: hcc70

Compared with `CC1=C[C@H]2O[C@@H]3C[C@@H](OC(=O)/C=C\C=C\[C@@H](OCCC4=CC(=O)OC4)[C@@H](C)O)[C@](C)([C@@]2(CO)CC1)[C@@]31CO1`, `CC1=C[C@H]2O[C@@H]3C[C@@H](OC(=O)/C=C\C=C\[C@@H](OCCC4=CC(=O)OC4)[C@@H](C)O)[C@](C)([C@@]2(COC(=O)/C=C(\C)CCO)CC1)[C@@]31CO1` is lower in IC50: greater than 10000 nM for the first, 20 nM for the second. The second is the more potent here.

First: CC1=C[C@H]2O[C@@H]3C[C@@H](OC(=O)/C=C\C=C\[C@]4([C@H](C)O)OCC/C(=C\C(=O)O)[C@@H]4O)[C@](C)([C@@]2(CO)CC1)[C@@]31CO1
Second: COC(=O)/C=C/C=C/[C@@H](OCC/C(C)=C/C(=O)OC[C@]12CCC(C)=C[C@H]1O[C@@H]1C[C@@H](O)[C@@]2(C)[C@@]12CO2)[C@@H](C)O
The IC50 of the first is lower: 7700 nM for the first, greater than 10000 nM for the second. The first is the more potent here.

First: CC1=C[C@H]2O[C@@H]3C[C@H]4OC(=O)/C=C\C=C\[C@]5([C@H](C)O)OCC/C(=C\C(=O)OC[C@@]2(CC1)[C@]4(C)[C@@]31CO1)[C@H]5O
Second: CC1=C[C@H]2O[C@@H]3C[C@H]4OC(=O)/C=C\C=C\[C@]5([C@H](C)O)OCC/C(=C\C(=O)OC[C@@]2(CC1)[C@]4(C)[C@@]31CO1)[C@@H]5O
The IC50 of the first is 2200-fold higher: 2200 nM for the first, 1 nM for the second. The second is the more potent here.

`CC1=C[C@H]2O[C@@H]3C[C@H]4OC(=O)/C=C\C=C\[C@H]([C@@H](C)O)OCC/C(C)=C/C(=O)OC[C@@]2(CC1)[C@]4(C)[C@]31CO1` [RORIDIN E] gave an IC50 of 0.02 nM.

Test system: BT-549
Experiment: Cytotoxicity against human BT549 cells assessed as growth inhibition after 72 hrs by SRB assay
Type: functional, cell-based
Conditions: Homo sapiens, BT-549, 72 h

Compared with `C/C1=C\C(=O)OC[C@@]23CC[C@](C)(O)[C@H]4C[C@@]5(O)[C@@H](C[C@@H](OC(=O)/C=C\C=C\[C@H]([C@@H](C)O)OCC1)[C@]25C)O[C@H]43`, `COc1cccc2c1C(=O)c1c(O)c3c(c(O)c1C2=O)C[C@@](O)(C(=O)CO)C[C@@H]3O[C@H]1C[C@H](N)[C@H](O)[C@H](C)O1` [DOXORUBICIN] is lower in IC50: greater than 10000 nM for the first, 10 nM for the second.

`COc1cc([C@@H]2c3cc4c(cc3[C@@H](O[C@@H]3O[C@@H]5CO[C@@H](C)O[C@H]5[C@H](O)[C@H]3O)[C@H]3COC(=O)[C@H]23)OCO4)cc(OC)c1O` [ETOPOSIDE] gave an IC50 of 1800 nM.

Same assay, conditions: bt-549

First: CC1=C[C@H]2O[C@@H]3C[C@@H](OC(=O)/C=C\C=C\[C@@H](OCCC4=CC(=O)OC4)[C@@H](C)O)[C@](C)([C@@]2(CO)CC1)[C@@]31CO1
Second: CC1=C[C@H]2O[C@@H]3C[C@@H](OC(=O)/C=C\C=C\[C@@H](OCCC4=CC(=O)OC4)[C@@H](C)O)[C@](C)([C@@]2(COC(=O)/C=C(\C)CCO)CC1)[C@@]31CO1
The IC50 of the first is higher: greater than 10000 nM for the first, 4 nM for the second.

First: CC1=C[C@H]2O[C@@H]3C[C@@H](OC(=O)/C=C\C=C\[C@]4([C@H](C)O)OCC/C(=C\C(=O)O)[C@@H]4O)[C@](C)([C@@]2(CO)CC1)[C@@]31CO1
Second: COC(=O)/C=C/C=C/[C@@H](OCC/C(C)=C/C(=O)OC[C@]12CCC(C)=C[C@H]1O[C@@H]1C[C@@H](O)[C@@]2(C)[C@@]12CO2)[C@@H](C)O
The IC50 of the first is lower: 1800 nM for the first, greater than 10000 nM for the second.

First: CC1=C[C@H]2O[C@@H]3C[C@H]4OC(=O)/C=C\C=C\[C@]5([C@H](C)O)OCC/C(=C\C(=O)OC[C@@]2(CC1)[C@]4(C)[C@@]31CO1)[C@H]5O
Second: CC1=C[C@H]2O[C@@H]3C[C@H]4OC(=O)/C=C\C=C\[C@]5([C@H](C)O)OCC/C(=C\C(=O)OC[C@@]2(CC1)[C@]4(C)[C@@]31CO1)[C@@H]5O
The IC50 of the first is 6000-fold higher: 1800 nM for the first, 0.3 nM for the second. The second is the more potent here.

With `CC1=C[C@H]2O[C@@H]3C[C@H]4OC(=O)/C=C\C=C\[C@H]([C@@H](C)O)OCC/C(C)=C/C(=O)OC[C@@]2(CC1)[C@]4(C)[C@]31CO1` [RORIDIN E] the IC50 was 0.02 nM.

Source: ChEMBL document CHEMBL4371018, “Macrocyclic Trichothecene Mycotoxins from a Deadly Poisonous Mushroom, Podostroma cornu-damae” (J Nat Prod, 2019)
